Assay results from article PMC4521081, “Thiophenecarboxamide Derivatives Activated by EthA Kill Mycobacterium tuberculosis by Inhibiting the CTP Synthetase PyrG” (Chemistry & Biology, 2015).
≈ marks a conversion by molar mass, not a printed value. Entries after “also recorded” stand apart in the source; their conditions may differ. Read-outs that look alike come from different tables or passages of the source.

What was measured:
wild-type PyrG = wild-type PyrG (Mycobacterium tuberculosis, UniProt P9WHK7); format: biochemical, M. tuberculosis; parameters: % inhibition of wild-type PyrG: dose or concentration left out as unconfirmed
Sequence of wild-type PyrG (P9WHK7 whole entry): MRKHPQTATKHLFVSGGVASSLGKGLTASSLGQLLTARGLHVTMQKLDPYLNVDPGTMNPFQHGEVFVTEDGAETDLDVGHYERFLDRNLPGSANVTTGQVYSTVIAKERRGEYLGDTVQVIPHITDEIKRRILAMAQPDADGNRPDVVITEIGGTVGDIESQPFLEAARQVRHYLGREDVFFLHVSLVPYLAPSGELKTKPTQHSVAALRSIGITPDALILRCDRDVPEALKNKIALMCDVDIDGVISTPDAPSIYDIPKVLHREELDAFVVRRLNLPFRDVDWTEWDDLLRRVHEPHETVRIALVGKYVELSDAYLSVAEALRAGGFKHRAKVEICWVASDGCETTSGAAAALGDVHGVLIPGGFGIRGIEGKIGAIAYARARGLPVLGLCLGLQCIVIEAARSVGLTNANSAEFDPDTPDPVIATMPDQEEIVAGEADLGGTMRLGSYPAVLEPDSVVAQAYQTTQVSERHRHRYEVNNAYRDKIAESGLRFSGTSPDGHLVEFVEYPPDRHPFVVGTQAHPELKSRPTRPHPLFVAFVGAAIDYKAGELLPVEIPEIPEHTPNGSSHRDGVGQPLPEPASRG

EthA [1] = target: T1, EthA (Mycobacterium tuberculosis, UniProt P9WNF9); details: cited from earlier work; for Km: read-out: Km (EthA substrate)
T1 sequence (P9WNF9 whole entry): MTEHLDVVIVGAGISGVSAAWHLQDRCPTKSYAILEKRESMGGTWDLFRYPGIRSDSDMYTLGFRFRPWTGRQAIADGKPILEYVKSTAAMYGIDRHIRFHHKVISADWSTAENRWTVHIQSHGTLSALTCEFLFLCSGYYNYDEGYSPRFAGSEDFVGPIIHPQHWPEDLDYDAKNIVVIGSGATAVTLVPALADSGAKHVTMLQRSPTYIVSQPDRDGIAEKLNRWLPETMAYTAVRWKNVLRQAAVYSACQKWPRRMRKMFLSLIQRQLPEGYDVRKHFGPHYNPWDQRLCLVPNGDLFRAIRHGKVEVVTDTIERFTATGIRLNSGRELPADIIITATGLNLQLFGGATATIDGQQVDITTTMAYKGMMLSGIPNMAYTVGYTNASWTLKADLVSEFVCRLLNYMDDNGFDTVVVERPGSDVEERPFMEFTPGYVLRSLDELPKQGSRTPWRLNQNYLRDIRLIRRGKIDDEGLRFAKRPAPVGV

M. tuberculosis H37Rv [2] = test: microbe, parasite or virus in culture; format: cell-based
A549 = details: A549, at concentrations below 40 μg/ml
PyrG = PyrG (Mycobacterium tuberculosis, UniProt P9WHK7); format: biochemical, M. tuberculosis
Sequence of PyrG (P9WHK7 whole entry): as the sequence (P9WHK7 whole entry) above

Huh7 = details: Huh7, at concentrations below 40 μg/ml
RAW 264.7 = details: at concentrations below 40 μg/ml
HepG2 = details: HepG2, at concentrations below 40 μg/ml
[3] = test system: intracellular M. tuberculosis H37Rv; test: microbe, parasite or virus in culture; format: cell-based; details: Mycobacterium tuberculosis; for IC50: read-out: Intracellular IC50; for IC90: read-out: Intracellular IC90
EthA [4] = target: T1, EthA; format: biochemical, M. tuberculosis
[5] = test system: non-replicating M. tuberculosis ss18b; test: microbe, parasite or virus in culture; format: cell-based; details: Mycobacterium tuberculosis
M. tuberculosis H37Rv [6] = format: cell-based, Mycobacterium tuberculosis
M. tuberculosis H37Ra = test: MIC against M. tuberculosis H37Ra; format: cell-based, Mycobacterium tuberculosis
[7] = Mycobacterium tuberculosis, H37RV, Figure 5, H37Rv, read-out: MIC
[8] = Mycobacterium tuberculosis, H37RV, Table 1, replicating, read-out: H37Rv MIC
[9] = Mycobacterium tuberculosis, H37RV, Table 2, strain H37Rv, read-out: MIC
[10] = Mycobacterium tuberculosis, H37RV, Table S2, H37Rv, read-out: MIC
[11] = Mycobacterium tuberculosis, H37RV, Table S4, H37Rv, read-out: MIC

O=C(CCc1ccccc1)NC(=O)Nc1ccc(N2CCCCC2)cc1 [3-phenyl-N-[(4-piperidin-1-ylphenyl)carbamoyl]propanamide]
effect on PyrG enzymatic activity (wild-type PyrG): no effect

CCc1cc(C(N)=S)ccn1 [ETH, ethionamide, reference compound]
Km (EthA [1]): 340 µM | MIC (M. tuberculosis H37Rv [2]; Mycobacterium tuberculosis, H37RV): 1 µg/mL (≈ 6.02 µM)

Cc1ccc(C(=O)Nc2ccc([N+](=O)[O-])cc2)[s+]1[O-] (centres unmarked) [M2]
effect on PyrG enzymatic activity (wild-type PyrG): inhibit

O=C(CCc1ccccc1)NC(=S)Nc1ccc(N2CCCCC2)cc1 [compound 7904688, 3-phenyl-N-[(4-piperidin-1-ylphenyl)carbamothioyl]propanamide]
cytotoxicity (A549): not cytotoxic | loss of PyrG activity (PyrG): about 80% | cytotoxicity (Huh7): not cytotoxic | cytotoxicity (RAW 264.7): not cytotoxic | effect on wild-type PyrG (wild-type PyrG): ineffective | cytotoxicity (HepG2): not cytotoxic | IC50 [3]: 0.175 µg/mL (≈ 0.476 µM) | IC90 [3]: 0.625 µg/mL (≈ 1.7 µM) | higher affinity for EthA than ETH (EthA [4]): ~10 fold | MIC (M. tuberculosis H37Rv [2]; [7]): 0.5 µg/mL (≈ 1.36 µM) | MIC (M. tuberculosis H37Rv [2]; [8]): 0.5 µg/mL (≈ 1.36 µM) | MIC (M. tuberculosis H37Rv [2]; [9]): 0.5 µg/mL (≈ 1.36 µM) | IC50 [5]: 2.5 µg/mL (≈ 6.8 µM) | IC90 [5]: 20 µg/mL (≈ 54.4 µM)

Cc1ccc(C(=O)Nc2ccc([N+](=O)[O-])cc2)s1 [compound 7947882, 5-methyl-N-(4-nitrophenyl)thiophene-2-carboxamide]
cytotoxicity (A549): not cytotoxic | melting point: 178 to 180 °C | time in which PyrG lost full activity (PyrG): ≤ 4 h | cytotoxicity (Huh7): not cytotoxic | cytotoxicity (RAW 264.7): not cytotoxic | effect on wild-type PyrG (wild-type PyrG): ineffective | cytotoxicity (HepG2): not cytotoxic | abundance of nucleotide intermediates (M. tuberculosis H37Rv [6]): substantial increase | IC50 [3]: 0.625 µg/mL (≈ 2.38 µM) | IC90 [3]: 1.25 µg/mL (≈ 4.77 µM) | higher affinity for EthA than ETH (EthA [4]): ~10 fold | MIC (M. tuberculosis H37Rv [2]; [7]): 0.5 µg/mL (≈ 1.91 µM) | MIC (M. tuberculosis H37Rv [2]; [8]): 0.5 µg/mL (≈ 1.91 µM) | MIC (M. tuberculosis H37Rv [2]; [9]): 0.5 µg/mL (≈ 1.91 µM) | MIC (M. tuberculosis H37Rv [2]; [10]): 0.5 µg/mL (≈ 1.91 µM) | MIC (M. tuberculosis H37Rv [2]; [11]): 0.5 µg/mL (≈ 1.91 µM) | IC50 [5]: 2.5 µg/mL (≈ 9.53 µM) | IC90 [5]: 10 µg/mL (≈ 38.1 µM)

Cc1ccc(C(=O)O)s1 [compound 11326028, 5-methylthiophene-2-carboxylic acid]
MIC (M. tuberculosis H37Rv [2]; Figure 5, H37Rv): 0.128 µg/mL (≈ 0.9 µM) | MIC (M. tuberculosis H37Rv [2]; [7]): 0.125 µg/mL (≈ 0.879 µM) | MIC (M. tuberculosis H37Rv [2]; [11]): 0.128 µg/mL (≈ 0.9 µM)

COc1ccc(NC(=O)c2cc([N+](=O)[O-])c(C)s2)cc1OC [compound 11326054]
melting point: 200 to 202 °C | kcat (compound as EthA substrate) (EthA [4]): 0.0163 ± 0.0005 s⁻¹ | MIC (M. tuberculosis H37Rv [2]; [7]): 0.25 µg/mL (≈ 0.776 µM) | MIC (M. tuberculosis H37Rv [2]; [11]): 0.25 µg/mL (≈ 0.776 µM)

CC1=CC=C(C(=O)Nc2ccc([N+](=O)[O-])cc2)S1(=O)=O [compound 11426026]
% inhibition of wild-type PyrG (wild-type PyrG): 83.6 ± 3.8% | effect on PyrG enzymatic activity (wild-type PyrG): inhibit; also recorded: higher degree of inhibition | MIC (M. tuberculosis H37Ra): 4 µg/mL (≈ 13.6 µM) | MIC (M. tuberculosis H37Rv [2]; [10]): 1 µg/mL (≈ 3.4 µM) | MIC (M. tuberculosis H37Rv [2]; Mycobacterium tuberculosis, H37RV, Table S5, read-out: H37Rv MIC): 1 µg/mL (≈ 3.4 µM)

CC(=O)Cc1ccccc1 [phenylacetone]
Km (EthA [1]; comparison values, ref Fraaije et al., 2004): 60 µM | kcat (EthA substrate) (EthA [1]; ref Fraaije et al., 2004): 0.027 s⁻¹
